The values that follow are results of earlier work, collected in patent publication US10251409B2, “Mixtures of matter” (SYMRISE AG, priority 2013, dated 2019).

The conditions of this data set: compared with sugar.

Turning to `C=C1C[C@@]23CC[C@H]4[C@@](C)(CCC[C@@]4(C)C(=O)O[C@@H]4O[C@H](CO)[C@@H](O)[C@H](O)[C@H]4O)[C@@H]2CC[C@]1(O[C@@H]1O[C@H](CO)[C@@H](O)[C@H](O[C@@H]2O[C@H](CO)[C@@H](O)[C@H](O)[C@H]2O)[C@H]1O[C@@H]1O[C@H](CO)[C@@H](O)[C@H](O)[C@H]1O)C3` [rebaudioside A], the “Sweetening power relative to sugar” value is “up to 450 times”.
